pEC50: −log10 of the molar value.
Legend:
Type in all cases: cell-based
HUVEC cells = assay: HUVEC tube disruption assay
Experimental: Aliquots of Matrigel basement membrane matrix (300 μl, BD Biosciences, Mississauga, Ontario, Canada) were added to each well of 24-well plates (Fisher Scientific Ltd, Nepean, Ontario, Canada) and allowed to incubate for 1 h at 37° C. HUVEC cells (3×10^4) were added per well in EGM-2 and incubated for 4 h at 37° C. in a 5% CO2 atmosphere to allow the cells to form tube-like structures. Compound 1R was diluted in DMSO to its respective concentrations, added to cells, and allowed to incubate for 1 h at 37° C. in a 5% CO2 atmosphere. Following the incubation, the medium was gently aspirated and fresh EGM-2 was added and cells were further incubated for 24 h. Miroscopy images were recorded with a Zeiss LSM 510 confocal microscope (Zeiss Canada Ltd, Toronto, Ontario, Canada). The effect of compound 1R on capillary tube disruption was evaluated by light microscopy (×40 magnification) and the results are summarized in Table III.

H1299 = assay: Caspase activation assay in H1299 cells; conditions: Homo sapiens, NCI-H1299, 24 h incubation, read-out: Caspase activation potency EC50 H1299
Experimental: Human breast cancer cell lines T-47D and ZR-75-1, human colon cancer cell line DLD-1 and human non-small cell lung cancer cell line H1299 were grown according to media component mixtures designated by American Type Culture Collection+10% FCS (Invitrogen Corporation), in a 5% CO2−95% humidity incubator at 37° C. T-47D and ZR-75-1 cells were maintained at a cell density between 30 and 80% confluency at a cell density of 0.1 to 0.6×10^6 cells/mL. Cells were harvested at 600×g and resuspended at 0.65×10^6 cells/mL into appropriate media+10% FCS. An aliquot of […] of cells was added to a well of a 96-well microtiter plate containing 5 μl of a 10% DMSO in RPMI-1640 media solution containing about 0.16 to 10 μM of 2,7,8-triamino-4-(3-bromo-4,5-dimethoxy-phenyl)-3-cyano-4H-chromene (1) or other test compounds (0.016 to 1 μM final). An aliquot of 45 μl of cells was added to a well of a 96-well microtiter plate containing 5 μl of a 10% DMSO in RPMI-1640 media solution without test compound as the control sample. The samples were mixed by agitation and then incubated at 37° C. for 24 h in a 5% CO2−95% humidity incubator. After incubation, the samples were removed from the incubator and 50 μl of a solution containing 20 μM of N-(Ac-DEVD)-N′-ethoxycarbonyl-R110 (SEQ ID No:1) fluorogenic substrate (Cytovia, Inc.; U.S. Pat. No. 6,335,429), 20% sucrose (Sigma), 20 mM DTT (Sigma), 200 mM NaCl (Sigma), 40 mM Na PIPES buffer pH 7.2 (Sigma), and 500 μg/ml lysolecithin (Calbiochem) was added. The samples were mixed by agitation and incubated at room temperature. Using a fluorescent plate reader (Model 1420 Wallac Instruments), an initial reading (T=0) was made about 1-2 min after addition of the substrate solution, employing excitation at 485 nm and emission at 530 nm, to determine the background fluorescence of the control sample. After the 3 h incubation, the samples were read for fluorescence as above (T=3 h).
The Relative Fluorescence Unit values (RFU) were used to calculate the sample readings as follows: RFU(T=3h)−Control RFU(T=0)=Net RFU(T=3h)
The activity of caspase cascade activation was determined by the ratio of the net RFU value for 2,7,8-triamino-4-(3-bromo-4,5-dimethoxy-phenyl)-3-cyano-4H-chromene or other test compound to that of control samples. The EC50 (nM) was determined by a sigmoidal dose-response calculation (Prism 2.0, GraphPad Software Inc.).

SNU398 = assay: Inhibition of cell proliferation (GI50), SNU398; conditions: Homo sapiens, SNU-398; Snu398 cells, 72 h, CellTiter-Glo
Experimental: Human breast cancer cells MX-1 and MDAMB435, hepatocarcinoma cells SNU398, colon cancer cells HCT116 and HeLa cells were grown and harvested as in Example 7. An aliquot of […] of cells (4.4×10^4 cells/mL) was added to a well of a 96-well microtiter plate containing 5 μL of a 10% DMSO in RPMI-1640 media solution containing 10 nM to 100 μM of R(−)-2,7,8-triamino-4-(3-bromo-4,5-dimethoxy-phenyl)-3-cyano-4H-chromene (1 nM to 10 μM final). An aliquot of 45 μL of cells was added to a well of a 96-well microtiter plate containing 5 μL of a 10% DMSO in RPMI-1640 media solution without compound as the control sample for maximal cell proliferation (LMax). The samples were mixed by agitation and then incubated at 37° C. for 72 h in a 5% CO2−95% humidity incubator. After incubation, the samples were removed from the incubator and 25 μL of CellTiter-Glo™ reagent (Promega) was added. The samples were mixed by agitation and incubated at room temperature for 10-15 min. Plates were then read using a luminescent plate reader (Model SPECTRAfluor Plus, Tecan) to give Ltest values.
Baseline for GI50 (dose for 50% inhibition of cell proliferation) of initial cell numbers was determined by adding an aliquot of 45 μL of cells or 45 μL of media, respectively, to wells of a 96-well microtiter plate containing 5 μL of a 10% DMSO in RPMI-1640 media solution. […]

Compound: COc1cc([C@H]2C(C#N)=C(N)Oc3c2ccc(N)c3N)cc(Br)c1OC [Compound 1R, R(−)-2,7,8-triamino-4-(3-bromo-4,5-dimethoxy-phenyl)-3-cyano-4H-chromene]
- Tube formation % inhibition (HUVEC cells; 3.3 nM): No inhibition
- Lowest concentration that inhibited tube formation (HUVEC cells; HUVEC tubes): 10 nM
- inhibition at 0.01 µM (HUVEC cells; Homo sapiens, HUVEC, 10 nM, read-out: Tube formation % inhibition): 75%
- inhibition at 0.03 µM (HUVEC cells; Homo sapiens, HUVEC, 30 nM, read-out: Tube formation % inhibition): 100%
- inhibition at 0.1 µM (HUVEC cells; Homo sapiens, HUVEC, 100 nM, read-out: Tube formation % inhibition): 100%
- pEC50 (H1299): 7.21
- GI50 (SNU398): 28 nM
